Measurements as given in patent US20100298141A1, “SUBSTITUTED PYRIDINE N-OXIDE HERBICIDES” (E. I. DU PONT DE NEMOURS AND COMPANY, priority 2007, published 2010).

Key:
redroot pigweed = experiment: Test A pre-/postemergence greenhouse test; assay type: in vivo, Amaranthus retroflexus; details: for Plant response rating, Pigweed: 0 to 100 scale where 0 is no effect and 100 is complete control; for Pigweed plant response rating: 0 to 100 scale
Source text: (§1) Seeds of barnyardgrass (Echinochloa crus-galli), crabgrass (Digitaria sanguinalis), giant foxtail (Setaria faberi), morningglory (Ipomoea spp.), redroot pigweed (Amaranthus retroflexus), velvetleaf (Abutilon theophrasti), wheat (Triticum aestivum), and corn (Zea mays) were planted into a blend of loam soil and sand and treated preemergence with a directed soil spray using test compounds formulated in a non-phytotoxic solvent mixture which included a surfactant. At the same time these species were also treated with postemergence applications of test compounds formulated in the same manner. Plants ranged in height from two to ten cm and were in the one- to two-leaf stage for the postemergence treatment. Treated plants and untreated controls were maintained in a greenhouse for approximately ten days, after which time all treated plants were compared to untreated controls and visually evaluated for injury. […] A dash (-) response means no test results.

velvetleaf = experiment: Test A pre-/postemergence greenhouse test; assay type: in vivo, Abutilon theophrasti; details: for Plant response rating, Velvetleaf: 0 to 100 scale where 0 is no effect and 100 is complete control; for Velvetleaf plant response rating: 0 to 100 scale
Source text: as §1

wheat = experiment: Test A pre-/postemergence greenhouse test; assay type: in vivo, Triticum aestivum; details: for Plant response rating, Wheat: 0 to 100 scale where 0 is no effect and 100 is complete control; for Wheat plant response rating: 0 to 100 scale
Source text: as §1

rice = experiment: Test C flooded paddy test; assay type: in vivo, Oryza sativa; details: Flood
Source text: (§2) At time of treatment, test pots were flooded to 3 cm above the soil surface, treated by application of test compounds directly to the paddy water, and then maintained at that water depth for the duration of the test. Treated plants and controls were maintained in a greenhouse for 13 to 15 days, after which time all species were compared to controls and visually evaluated. […] A dash (-) response means no test result.

umbrella sedge = experiment: Test C flooded paddy test; assay type: in vivo, Cyperus difformis; details: Flood
Source text: as §2

giant foxtail = experiment: Test A pre-/postemergence greenhouse test; assay type: in vivo, Setaria faberi; details: for Plant response rating, Foxtail, Giant: 0 to 100 scale where 0 is no effect and 100 is complete control; for Foxtail, Giant plant response rating: 0 to 100 scale
Source text: as §1

morningglory = experiment: Test A pre-/postemergence greenhouse test; assay type: in vivo, Ipomoea spp.; details: for Plant response rating, Morningglory: 0 to 100 scale where 0 is no effect and 100 is complete control; for Morningglory plant response rating: 0 to 100 scale
Source text: as §1

corn = experiment: Test A pre-/postemergence greenhouse test; assay type: in vivo, Zea mays; details: for Plant response rating, Corn: 0 to 100 scale where 0 is no effect and 100 is complete control; for Corn plant response rating: 0 to 100 scale
Source text: as §1

barnyardgrass [1] = experiment: Test C flooded paddy test; assay type: in vivo, Echinochloa crus-galli; details: Flood
Source text: as §2

barnyardgrass [2] = experiment: Test A pre-/postemergence greenhouse test; assay type: in vivo, Echinochloa crus-galli; details: for Plant response rating, Barnyardgrass: 0 to 100 scale where 0 is no effect and 100 is complete control; for Barnyardgrass plant response rating: 0 to 100 scale
Source text: as §1

crabgrass = experiment: Test A pre-/postemergence greenhouse test; assay type: in vivo, Digitaria sanguinalis; details: for Plant response rating, Crabgrass, Large: 0 to 100 scale where 0 is no effect and 100 is complete control; for Crabgrass, Large plant response rating: 0 to 100 scale
Source text: as §1

duck salad = experiment: Test C flooded paddy test; assay type: in vivo, Heteranthera limosa; details: Flood
Source text: as §2

[3] = Postemergence, 500 g ai/ha, 0 is no effect, 100 is complete control
[4] = Preemergence, 125 g ai/ha, 0 no effect, 100 complete control
[5] = 62 g ai/ha, scale 0 to 100 (0 no effect, 100 complete control)
[6] = 250 g ai/ha, scale 0 to 100, 0 no effect, 100 complete control, 13 to 15 days
[7] = Preemergence, 500 g ai/ha, 0 no effect, 100 complete control

Compound	Plant response rating, Pigweed (redroot pigweed; Postemergence, 125 g ai/ha)	Pigweed plant response rating (redroot pigweed; [3])	Pigweed plant response rating (redroot pigweed; [4])	Plant response rating, Pigweed (redroot pigweed; Preemergence, 500 g ai/ha)	Plant response rating, Velvetleaf (velvetleaf; Postemergence, 125 g ai/ha)	Velvetleaf plant response rating (velvetleaf; [3])	Velvetleaf plant response rating (velvetleaf; [4])	Plant response rating, Wheat (wheat; Postemergence, 125 g ai/ha)	Wheat plant response rating (wheat; [3])	Wheat plant response rating (wheat; [4])	Plant response rating, Rice (rice; [5])	Plant response rating, Rice (rice; [6])	Plant response rating, Sedge, Umbrella (umbrella sedge; [5])	Plant response rating, Sedge, Umbrella (umbrella sedge; [6])	Plant response rating, Foxtail, Giant (giant foxtail; Postemergence, 125 g ai/ha)	Foxtail, Giant plant response rating (giant foxtail; [3])	Foxtail, Giant plant response rating (giant foxtail; [4])	Plant response rating, Foxtail, Giant (giant foxtail; Preemergence, 500 g ai/ha)	Plant response rating, Morningglory (morningglory; Postemergence, 125 g ai/ha)	Morningglory plant response rating (morningglory; [3])	also measured
Cn1nc(C(F)(F)C(F)(F)F)c(CS(=O)(=O)c2cccc[n+]2[O-])c1OCC(F)(F)F [Compound 84]	40	70	60	100	20	70	70	30	60	40	30	65	75	100	70	80	80	100	20	70	Plant response rating, Velvetleaf (velvetleaf; Preemergence, 500 g ai/ha): 100; Plant response rating, Wheat (wheat; Preemergence, 500 g ai/ha): 100; Morningglory plant response rating (morningglory; [4]): 70; Plant response rating, Morningglory (morningglory; Preemergence, 500 g ai/ha): 90; Plant response rating, Corn (corn; Postemergence, 125 g ai/ha): 0; Corn plant response rating (corn; [3]): 40; Corn plant response rating (corn; [4]): 0; Plant response rating, Corn (corn; Preemergence, 500 g ai/ha): 30; Plant response rating, Barnyardgrass (barnyardgrass [1]; [5]): 15; Plant response rating, Barnyardgrass (barnyardgrass [1]; [6]): 60; Plant response rating, Barnyardgrass (barnyardgrass [2]; Postemergence, 125 g ai/ha): 70; Barnyardgrass plant response rating (barnyardgrass [2]; [3]): 80; Barnyardgrass plant response rating (barnyardgrass [2]; [4]): 90; Plant response rating, Barnyardgrass (barnyardgrass [2]; Preemergence, 500 g ai/ha): 100; Plant response rating, Crabgrass, Large (crabgrass; Postemergence, 125 g ai/ha): 70; Crabgrass, Large plant response rating (crabgrass; [3]): 80; Crabgrass, Large plant response rating (crabgrass; [4]): 60; Plant response rating, Crabgrass, Large (crabgrass; Preemergence, 500 g ai/ha): 90; Plant response rating, Ducksalad (duck salad; [5]): 75; Plant response rating, Ducksalad (duck salad; [6]): 85
Cc1cc[n+]([O-])c([S+]([O-])Cc2c(C(F)(F)C(F)(F)F)nn(C)c2OCC(F)(F)F)c1 (centres unmarked) [Compound 91]	50	60	90	100	30	80	0	60	80	40	0	70	75	100	80	90	90	100	20	100	Velvetleaf plant response rating (velvetleaf; [7]): 100; Wheat plant response rating (wheat; [7]): 100; Morningglory plant response rating (morningglory; [4]): 40; Plant response rating, Morningglory (morningglory; Preemergence, 500 g ai/ha): 100; Plant response rating, Corn (corn; Postemergence, 125 g ai/ha): 20; Corn plant response rating (corn; [3]): 80; Corn plant response rating (corn; [4]): 10; Plant response rating, Corn (corn; Preemergence, 500 g ai/ha): 90; Plant response rating, Barnyardgrass (barnyardgrass [1]; [5]): 0; Plant response rating, Barnyardgrass (barnyardgrass [1]; [6]): 70; Plant response rating, Barnyardgrass (barnyardgrass [2]; Postemergence, 125 g ai/ha): 70; Barnyardgrass plant response rating (barnyardgrass [2]; [3]): 90; Barnyardgrass plant response rating (barnyardgrass [2]; [4]): 20; Plant response rating, Barnyardgrass (barnyardgrass [2]; Preemergence, 500 g ai/ha): 100; Plant response rating, Crabgrass, Large (crabgrass; Postemergence, 125 g ai/ha): 50; Crabgrass, Large plant response rating (crabgrass; [3]): 80; Crabgrass, Large plant response rating (crabgrass; [4]): 20; Plant response rating, Crabgrass, Large (crabgrass; Preemergence, 500 g ai/ha): 100; Plant response rating, Ducksalad (duck salad; [5]): 45; Plant response rating, Ducksalad (duck salad; [6]): 100
